Experimental data from patent US20240270750A1, “IMIDAZOLE-CONTAINING INHIBITORS OF ALK2 KINASE” (BioCryst Pharmaceuticals, Inc., priority 2021, published 2024).

Biological target: T1, ALK2 (Homo sapiens, UniProt Q04771)
T1 construct: purchased ThermoFisher Scientific (Life Technologies)
T1 sequence (Q04771 21-509): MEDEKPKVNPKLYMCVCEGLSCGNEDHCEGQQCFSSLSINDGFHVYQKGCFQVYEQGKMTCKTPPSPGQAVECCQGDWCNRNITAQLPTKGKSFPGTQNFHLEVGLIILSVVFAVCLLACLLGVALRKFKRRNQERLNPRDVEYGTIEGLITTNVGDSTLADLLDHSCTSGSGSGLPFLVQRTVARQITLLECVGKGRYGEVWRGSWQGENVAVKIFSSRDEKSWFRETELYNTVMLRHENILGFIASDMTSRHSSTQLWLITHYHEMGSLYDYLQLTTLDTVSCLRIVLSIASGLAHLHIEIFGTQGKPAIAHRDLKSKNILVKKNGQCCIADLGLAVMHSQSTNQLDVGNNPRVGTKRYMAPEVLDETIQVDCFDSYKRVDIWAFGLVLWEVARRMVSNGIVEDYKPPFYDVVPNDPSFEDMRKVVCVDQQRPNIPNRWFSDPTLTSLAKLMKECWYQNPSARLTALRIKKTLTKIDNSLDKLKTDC
Assay: LanthaScreen Eu Kinase Binding Assay, ALK2 inhibition
Details: 1 micromolar concentration
Description: Biochemical assays to measure the inhibitory effects of the compounds were performed by ThermoFisher Scientific (Life Technologies). ALK2 inhibition was tested using LanthaScreen™ Eu Kinase Binding Assay screening protocol.

| inhibition at 1 µM | Structure (SMILES) |
| --- | --- |
| > 50% | CC[C@@H](C)n1ncc2c(Nc3cn(-c4cc(OC)c(OC)c(OC)c4)cn3)nc(C(C)C)nc21 (single isomer, unassigned) [Compound 19d] |
| > 50% | CC[C@H](C)n1ncc2c(Nc3cn(-c4cc(OC)c(OC)c(OC)c4)cn3)nc(C(C)C)nc21 (single isomer, unassigned) [Compound 22d] |
| > 50% | COc1cc(-n2cnc(Nc3nc(C(C)C)nc4c3cnn4-c3ccc(F)cc3)c2)cc(OC)c1OC [Compound 1f, 1-(4-fluorophenyl)-6-isopropyl-N-(1-(3,4,5-trimethoxyphenyl)-1H-imidazol-4-yl)-1H-pyrazolo[3,4-d]pyrimidin-4-amine] |
| > 50% | COc1cc(-n2cnc(Nc3nc(C(C)C)nc4c3cnn4C(C)(C)C)c2)cc(OC)c1OC [Compound 2d, 1-(tert-butyl)-6-isopropyl-N-(1-(3,4,5-trimethoxyphenyl)-1H-imidazol-4-yl)-1H-pyrazolo[3,4-d]pyrimidin-4-amine] |
| > 50% | C=C(C)c1nc(Nc2cn(-c3cc(OC)c(OC)c(OC)c3)cn2)c2cnn(C(C)C)c2n1 [Compound 3d, 1-isopropyl-6-(prop-1-en-2-yl)-N-(1-(3,4,5-trimethoxyphenyl)-1H-imidazol-4-yl)-1H-pyrazolo[3,4-d]pyrimidin-4-amine] |
| > 50% | COc1cc(-n2cnc(Nc3nc(C(C)C)nc4c3cnn4C(C)C)c2)cc(OC)c1OC [Compound 4a, 1,6-diisopropyl-N-(1-(3,4,5-trimethoxyphenyl)-1H-imidazol-4-yl)-1H-pyrazolo[3,4-d]pyrimidin-4-amine] |
| > 50% | COc1cc(-n2cnc(Nc3nc(C=C(C)C)nc4c3cnn4C(C)C)c2)cc(OC)c1OC [Compound 5b, 1-isopropyl-6-(2-methylprop-1-en-1-yl)-N-(1-(3,4,5-trimethoxyphenyl)-1H-imidazol-4-yl)-1H-pyrazolo[3,4-d]pyrimidin-4-amine] |
| > 50% | COc1cc(-n2cnc(Nc3nc(CC(C)C)nc4c3cnn4C(C)C)c2)cc(OC)c1OC [Compound 6a, 6-isobutyl-1-isopropyl-N-(1-(3,4,5-trimethoxyphenyl)-1H-imidazol-4-yl)-1H-pyrazolo[3,4-d]pyrimidin-4-amine] |
| > 50% | COc1cc(-n2cnc(Nc3nc(C4CC4)nc4c3cnn4C(C)C)c2)cc(OC)c1OC [Compound 7e, 6-cyclopropyl-1-isopropyl-N-(1-(3,4,5-trimethoxyphenyl)-1H-imidazol-4-yl)-1H-pyrazolo[3,4-d]pyrimidin-4-amine] |
| > 50% | COc1cc(-n2cnc(Nc3nc(C(C)C)c4cnn(C(C)C)c4n3)c2)cc(OC)c1OC [Compound 8b, 1,4-diisopropyl-N-(1-(3,4,5-trimethoxyphenyl)-1H-imidazol-4-yl)-1H-pyrazolo[3,4-d]pyrimidin-6-amine] |
| > 50% | COc1cc(-n2cnc(Nc3nc(C(C)(C)C)c4cnn(C(C)C)c4n3)c2)cc(OC)c1OC [Compound 9b, 4-(tert-butyl)-1-isopropyl-N-(1-(3,4,5-trimethoxyphenyl)-1H-imidazol-4-yl)-1H-pyrazolo[3,4-d]pyrimidin-6-amine] |
| > 50% | COc1cc(-n2cnc(Nc3nc(C)c4cnn(C(C)C)c4n3)c2)cc(OC)c1OC [Compound 11b, 1-isopropyl-4-methyl-N-(1-(3,4,5-trimethoxyphenyl)-1H-imidazol-4-yl)-1H-pyrazolo[3,4-d]pyrimidin-6-amine] |
| > 50% | COc1cc(-n2cnc(Nc3nc(C4CCCCC4)c4cnn(C(C)C)c4n3)c2)cc(OC)c1OC [Compound 12b, 4-cyclohexyl-1-isopropyl-N-(1-(3,4,5-trimethoxyphenyl)-1H-imidazol-4-yl)-1H-pyrazolo[3,4-d]pyrimidin-6-amine] |
| > 50% | COc1cc(-n2cnc(Nc3nc(C4CC4)c4cnn(C(C)C)c4n3)c2)cc(OC)c1OC [Compound 13b, 4-cyclopropyl-1-isopropyl-N-(1-(3,4,5-trimethoxyphenyl)-1H-imidazol-4-yl)-1H-pyrazolo[3,4-d]pyrimidin-6-amine] |
| > 50% | COc1cc(-n2cnc(Nc3nc(C(C)C)nc4c3cnn4C3CC3)c2)cc(OC)c1OC [Compound 14f, 1-cyclopropyl-6-isopropyl-N-(1-(3,4,5-trimethoxyphenyl)-1H-imidazol-4-yl)-1H-pyrazolo[3,4-d]pyrimidin-4-amine] |
| > 50% | CCCC(C)n1ncc2c(Nc3cn(-c4cc(OC)c(OC)c(OC)c4)cn3)nc(C(C)C)nc21 (stereo not shown) [Compound 15e, 6-isopropyl-1-(pentan-2-yl)-N-(1-(3,4,5-trimethoxyphenyl)-1H-imidazol-4-yl)-1H-pyrazolo[3,4-d]pyrimidin-4-amine] |

| inhibition at 1 µM | Structure (SMILES) |
| --- | --- |
| > 50% | CCCCCn1ncc2c(Nc3cn(-c4cc(OC)c(OC)c(OC)c4)cn3)nc(C(C)C)nc21 [Compound 16c, 6-isopropyl-1-pentyl-N-(1-(3,4,5-trimethoxyphenyl)-1H-imidazol-4-yl)-1H-pyrazolo[3,4-d]pyrimidin-4-amine] |
| > 50% | COc1cc(-n2cnc(Nc3nc(C(C)C)nc4c3cnn4CC3CC3)c2)cc(OC)c1OC [Compound 17c, 1-(cyclopropylmethyl)-6-isopropyl-N-(1-(3,4,5-trimethoxyphenyl)-1H-imidazol-4-yl)-1H-pyrazolo[3,4-d]pyrimidin-4-amine] |
| > 50% | COc1cc(-n2cnc(Nc3nc(C(C)C)nc4c3cnn4C3CCCC3)c2)cc(OC)c1OC [Compound 18c, 1-cyclopentyl-6-isopropyl-N-(1-(3,4,5-trimethoxyphenyl)-1H-imidazol-4-yl)-1H-pyrazolo[3,4-d]pyrimidin-4-amine] |
| > 50% | COc1cc(-n2cnc(Nc3nc(C(C)C)nc4c3cnn4CC(C)C)c2)cc(OC)c1OC [Compound 20c, 1-isobutyl-6-isopropyl-N-(1-(3,4,5-trimethoxyphenyl)-1H-imidazol-4-yl)-1H-pyrazolo[3,4-d]pyrimidin-4-amine] |
| > 50% | COc1cc(-n2cnc(Nc3nc(C(C)C)nc4c3cnn4C3CCOC3)c2)cc(OC)c1OC (stereo not shown) [Compound 21c, 6-isopropyl-1-(tetrahydrofuran-3-yl)-N-(1-(3,4,5-trimethoxyphenyl)-1H-imidazol-4-yl)-1H-pyrazolo[3,4-d]pyrimidin-4-amine] |
| > 50% | CCn1ncc2c(Nc3cn(-c4cc(OC)c(OC)c(OC)c4)cn3)nc(C(C)C)nc21 [Compound 23c, 1-ethyl-6-isopropyl-N-(1-(3,4,5-trimethoxyphenyl)-1H-imidazol-4-yl)-1H-pyrazolo[3,4-d]pyrimidin-4-amine] |
| > 50% | COc1cc(-n2cnc(Nc3nc(C(C)C)nc4c3cnn4CC3CCCC3)c2)cc(OC)c1OC [Compound 24c, 1-(cyclopentylmethyl)-6-isopropyl-N-(1-(3,4,5-trimethoxyphenyl)-1H-imidazol-4-yl)-1H-pyrazolo[3,4-d]pyrimidin-4-amine] |
| > 50% | COc1cc(-n2cnc(Nc3nc(C(F)(F)F)nc4[nH]ncc34)c2)cc(OC)c1OC [Compound 25b, 6-(trifluoromethyl)-N-(1-(3,4,5-trimethoxyphenyl)-1H-imidazol-4-yl)-1H-pyrazolo[3,4-d]pyrimidin-4-amine] |
| > 50% | COc1cc(-n2cnc(Nc3nc(C(F)(F)F)nc4c3cnn4C(C)C)c2)cc(OC)c1OC [Compound 26a, 1-isopropyl-6-(trifluoromethyl)-N-(1-(3,4,5-trimethoxyphenyl)-1H-imidazol-4-yl)-1H-pyrazolo[3,4-d]pyrimidin-4-amine] |
| > 50% | C=CCC(C)c1nc(Nc2cn(-c3cc(OC)c(OC)c(OC)c3)cn2)c2cnn(C(C)C)c2n1 (stereo not shown) [Compound 27f, 1-isopropyl-6-(pent-4-en-2-yl)-N-(1-(3,4,5-trimethoxyphenyl)-1H-imidazol-4-yl)-1H-pyrazolo[3,4-d]pyrimidin-4-amine] |
| > 50% | COc1cc(-n2cnc(Nc3nc(C4CC(F)(F)C4)nc4c3cnn4C(C)C)c2)cc(OC)c1OC [Compound 28e, 6-(3,3-difluorocyclobutyl)-1-isopropyl-N-(1-(3,4,5-trimethoxyphenyl)-1H-imidazol-4-yl)-1H-pyrazolo[3,4-d]pyrimidin-4-amine] |
| > 50% | CCCC(C)c1nc(Nc2cn(-c3cc(OC)c(OC)c(OC)c3)cn2)c2cnn(C(C)C)c2n1 (stereo not shown) [Compound 29a, 1-isopropyl-6-(pentan-2-yl)-N-(1-(3,4,5-trimethoxyphenyl)-1H-imidazol-4-yl)-1H-pyrazolo[3,4-d]pyrimidin-4-amine] |
| > 50% | COCCc1nc(Nc2cn(-c3cc(OC)c(OC)c(OC)c3)cn2)c2cnn(C(C)C)c2n1 [Compound 30e, 1-isopropyl-6-(2-methoxyethyl)-N-(1-(3,4,5-trimethoxyphenyl)-1H-imidazol-4-yl)-1H-pyrazolo[3,4-d]pyrimidin-4-amine] |
| > 50% | COc1cc(-n2cnc(Nc3nc(C)nc4c3cnn4C(C)C)c2)cc(OC)c1OC [Compound 31b, 1-isopropyl-6-methyl-N-(1-(3,4,5-trimethoxyphenyl)-1H-imidazol-4-yl)-1H-pyrazolo[3,4-d]pyrimidin-4-amine] |
| > 50% | COc1cc(-n2cnc(Nc3nc(C(C)(C)C)nc4c3cnn4C(C)C)c2)cc(OC)c1OC [Compound 32d, 6-(tert-butyl)-1-isopropyl-N-(1-(3,4,5-trimethoxyphenyl)-1H-imidazol-4-yl)-1H-pyrazolo[3,4-d]pyrimidin-4-amine] |
